The source of these data is publication PMC4373884, “Crystal Structures of the Kinase Domain of the Sulfate-Activating Complex in Mycobacterium tuberculosis” (PLoS ONE, 2015).

Test [1] addresses T1, CysC (APS kinase domain of CysN) (Mycobacterium tuberculosis, UniProt P9WNM5).
T1 construct: gene cysNC

Test [2] addresses T1, CysC (APS kinase domain of CysN). The source holds these as a separate data set.

T1 sequence (P9WNM5 424-612): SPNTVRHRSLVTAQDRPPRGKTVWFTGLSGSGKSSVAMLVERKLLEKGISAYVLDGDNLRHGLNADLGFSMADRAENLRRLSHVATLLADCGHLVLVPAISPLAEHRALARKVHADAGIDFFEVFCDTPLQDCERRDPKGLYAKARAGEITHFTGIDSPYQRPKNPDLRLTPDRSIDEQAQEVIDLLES

Take `Nc1ncnc2c1ncn2[C@@H]1O[C@H](COP(=O)(O)OP(=O)(O)O)[C@@H](O)[C@H]1O` [ADP]: the X-ray crystal structure result in test [1] is given as “The electron density maps clearly show the presence of one molecule of ADP per subunit”.

Consider `Nc1ncnc2c1ncn2[C@@H]1O[C@H](COP(=O)(O)OP(=O)(O)NP(=O)(O)O)[C@@H](O)[C@H]1O` [AMP-PNP], for which the X-ray crystal structure entry in test [1] was “The bound ligands AMP-PNP and APS are well defined in electron density”.

Turning to `Nc1ncnc2c1ncn2[C@@H]1O[C@H](COP(=O)(O)OP(=O)(O)OP(=O)(O)O)[C@@H](O)[C@H]1O` [ATP], the “ADP-Glo luminescence kinase assay” value in test [2] was “The CysC domain used in this study is catalytically active and shows APS kinase activity”.
